Test results as given in ChEMBL document CHEMBL1150396, “New PPARgamma ligands based on 2-hydroxy-1,4-naphthoquinone: computer-aided design, synthesis, and receptor-binding studies” (Bioorg Med Chem Lett, 2008).

molecular target: T1, Peroxisome proliferator-activated receptor gamma (Rattus norvegicus) (UniProt O88275); assay: Displacement of [3H]rosigliatzone from PPARgamma in rat adipocytes at 0.1 uM; format: cell-based
T1 sequence (whole entry): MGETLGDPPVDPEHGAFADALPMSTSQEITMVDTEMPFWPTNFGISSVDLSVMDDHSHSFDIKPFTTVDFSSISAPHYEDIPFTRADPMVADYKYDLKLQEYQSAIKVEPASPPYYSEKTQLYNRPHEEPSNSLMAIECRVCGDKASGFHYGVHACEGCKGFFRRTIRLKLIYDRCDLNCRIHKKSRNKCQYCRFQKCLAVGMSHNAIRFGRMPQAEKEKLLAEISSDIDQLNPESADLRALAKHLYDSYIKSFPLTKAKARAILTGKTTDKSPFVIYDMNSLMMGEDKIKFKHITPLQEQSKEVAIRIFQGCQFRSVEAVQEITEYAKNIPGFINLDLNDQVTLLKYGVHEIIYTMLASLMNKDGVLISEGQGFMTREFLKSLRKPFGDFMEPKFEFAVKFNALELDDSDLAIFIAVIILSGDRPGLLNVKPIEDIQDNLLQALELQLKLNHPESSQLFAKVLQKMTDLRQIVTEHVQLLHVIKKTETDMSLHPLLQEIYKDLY

Q: With `Cc1ccc(OCCOc2ccc(CC3=C(O)C(=O)c4ccccc4C3=O)cc2)cc1` as the compound, how does the Activity read?
A: < 20%

Q: Which Activity does the source give for `O=C1C(O)=C(Cc2ccc(OCCOc3cccc4ccccc34)cc2)C(=O)c2ccccc21` here?
A: < 20%

Q: Which Activity does the source give for `O=C1C(O)=C(Cc2ccc(OCCOc3ccc(Cl)cc3)cc2)C(=O)c2ccccc21` here?
A: < 20%

Q: `O=C1C(O)=C(Cc2ccc(OCCOc3ccc4c(c3)CCC4)cc2)C(=O)c2ccccc21` was tested. Which Activity did it give?
A: < 20%

molecular target: T2, Peroxisome proliferator-activated receptor gamma (Rattus norvegicus, UniProt O88275); assay: Displacement of [3H]rosigliatzone from PPARgamma in rat adipocytes; format: cell-based
T2 sequence (O88275 whole entry): T1 sequence (whole entry)

Q: Which IC50 does the source give for `O=C1C(O)=C(Cc2ccc(OCc3ccccc3)cc2)C(=O)c2ccccc21` here?
A: 3600 nM

Q: For `CCc1ccc(CCOc2ccc(CC3SC(=O)NC3=O)cc2)nc1` (centres undefined) [PIOGLITAZONE], which IC50 is on record?
A: 700 nM

Q: With `COc1ccc(OCCOc2ccc(CC3=C(O)C(=O)c4ccccc4C3=O)cc2)cc1` as the compound, how does the IC50 read?
A: 56200 nM

Q: How did the IC50 turn out when `N#Cc1ccc(OCCOc2ccc(CC3=C(O)C(=O)c4ccccc4C3=O)cc2)cc1` was run?
A: 1900 nM

Q: With `O=C1C(O)=C(Cc2ccc(OCc3ccccc3F)cc2)C(=O)c2ccccc21` as the compound, how does the IC50 read?
A: 200 nM
